Legend:
NF-kB p65/ReIA = assay: RT-PCR of NF-kB p65/ReIA mRNA, LPS-induced cells; format: cell-based, mouse; details: BV2, treatment 1.0 μg/ml, LPS 100 ng/ml; negative control 100.00
Method: (§1) Particularly, BV2 cells were cultured by the same manner as described in Experimental Example <3-1>, and inflammatory response was induced. Then, RT-PCR was performed with the cells by the same manner as described in Experimental Example <1-4>, followed by quantitative analysis of the expression levels of iNOS, IL-6, and NF-kB p65/ReIA genes. The normal control was not treated with the extract of the invention or the active component thereof but treated with DMSO alone. The negative control was not treated with the extract or the active component but treated with 100 ng/ml of LPS alone to induce inflammatory response. Then, the expression of the inflammatory response marker gene was confirmed by the same manner as described above.

[1] = system: inducible nitric oxide synthase (iNOS); assay: RT-PCR of iNOS mRNA, LPS-induced cells; format: cell-based, mouse; details: BV2, treatment 1.0 μg/ml, LPS 100 ng/ml; negative control 100.00
Method: as §1

interleukin-6, (IL-6) = assay: RT-PCR of IL-6 mRNA, LPS-induced cells; format: cell-based, mouse; details: BV2, treatment 1.0 μg/ml, LPS 100 ng/ml; negative control 100.00
Method: as §1

BV2 cells [2] = assay: DCF-DA intracellular ROS, LPS-induced cells; format: cell-based, mouse; details: BV2, treatment 1.0 μg/ml, inducer LPS 100 ng/ml
Method: Particularly, BV2 cells were cultured by the same manner as described in Experimental Example <3-1>, and inflammatory response was induced. Then, the cells induced with inflammatory response were treated with 1 μM DCF-DA and 0.05 μM bisbenzimide (Hoechst 33342), followed by staining at 37° C. for 1 hour. After the staining, the fluorescence intensity of DCF-DA was measured at 485 nm/535 nm, and the fluorescence intensity of bisbenzimide was measured at 335 nm/460 nm. Based on the ratio of DCF-DA/bisbenzimide, ROS was quantified. The amount of ROS, either increased or decreased, was compared with that of the normal control not treated with the extract or the active component thereof but treated with DMSO, and the results were presented as %. The negative control was treated with 100 ng/ml of LPS alone to induce inflammatory response but not treated with the extract or the active component thereof. Then, the generation of ROS was investigated by the same manner as described above.
(§2) Particularly, BV2 cells were cultured by the same manner as described in Experimental Example <3-1>, and inflammatory response was induced. Then, 100 μl of the cell culture medium was obtained, to which 100 μl of Griess reagent comprising hydrochloric acid containing 5% sulfanilamide and 2% naphthylethylenediamine was added, followed by reaction in a dark room for 30 minutes. Upon completion of the reaction, OD540 was measured with an EISA microplate reader (Versamax, USA). The concentration of nitric oxide in the medium was calculated using the standard calibration curve of sodium nitrite. To measure the ROS concentration, the cells were treated with 1 μM DCF-DA and 0.05 μM bisbenzimide (Hoechst 33342), followed by staining at 37° C. for 1 hour. After the staining, the fluorescence intensity of DCF-DA was measured at 485 nm/535 nm, and the fluorescence intensity of bisbenzimide was measured at 335 nm/460 nm. Based on the ratio of DCF-DA/bisbenzimide, ROS was quantified. The amount of ROS, either increased or decreased, was compared with that of the normal control not treated with the extract but treated with DMSO, and the results were presented as %. The negative control was treated with 100 ng/ml of LPS alone to induce inflammatory response but not treated with the extract or the active component thereof. Then, the nitric oxide concentration reduction effect and the ROS concentration reduction effect were investigated by the same manner as described above.

BV2 cells [3] = assay: Griess method, nitric oxide in medium of LPS-induced cells; format: cell-based, mouse; details: BV2, treatment 1.0 μg/ml, inducer LPS 100 ng/ml
Method: Particularly, BV2 cells were cultured by the same manner as described in Experimental Example <3-1>, and inflammatory response was induced. Then, 100 μl of the cell culture medium was obtained, to which 100 μl of Griess reagent comprising hydrochloric acid containing 5% sulfanilamide and 2% naphthylethylenediamine was added, followed by reaction in a dark room for 30 minutes. Upon completion of the reaction, OD540 was measured with an EISA microplate reader (Versamax, USA). The concentration of nitric oxide in the medium was calculated using the standard calibration curve of sodium nitrite. The normal control was not treated with the extract or the active component thereof but treated with DMSO. The negative control was treated with 100 ng/ml of LPS alone to induce inflammatory response but not treated with the extract or the active component. Then, the nitric oxide concentration reduction effect was investigated by the same manner as described above.
as §2

BV2 cells [4] = assay: MTT assay, LPS-induced inflammatory response; format: cell-based, mouse; details: BV2, treatment 1.0 μg/ml, inducer LPS 100 ng/ml
Method: Particularly, BV2 cells were cultured by the same manner as described in Experimental Example <3-1>. Then, the cultured cells were transferred into a serum free medium at the density of 1×10^5 cells/well. The cells were treated with the Bupleurum Root 90% ethanol extract prepared in Example <1-3>, saikosaponin A, saikosaponin B2, saikosaponin B4, or saikosaponin D at the concentration of 1.0 μg/ml, followed by culture for 4 hours. The cells were then treated with 100 ng/ml of lipopolysaccharide (LPS), followed by culture for 20 hours to induce inflammatory response. MTT assay was performed with the cells induced with inflammatory response by the same manner as described in Experimental Example <1-2>. The damage of mitochondria complex 1 was confirmed to see how the damage level was either increased or decreased, compared with the normal control group treated with DMSO without the extract or its active component. In the meantime, the negative control group was treated with 100 ng/ml of LPS alone to induce inflammatory response and was not treated with the extract or its active component. Then, MTT assay was performed by the same manner as described above.

[5] = system: BV2, the mouse microglial cell line; assay: Cell survival rate (calcein) in normal microglial cells, cytotoxicity; format: cell-based; details: 1.0 μg/ml, 4 hours
Method: Particularly, BV2, the mouse microglial cell line, was inoculated in 1:1 DMEM (Dulbeco's Modified Eagle's Medium; Gibco, USA) supplemented with 10% FBS, followed by culture in a 37° C., 5% CO2/95% air (O2) incubator. Then, the cultured cells were transferred into a serum free medium at the density of 2.5×10^4 cells/well. The cells were treated with the Bupleurum Root 90% ethanol extract prepared in Example <1-3>, saikosaponin A, saikosaponin B2, saikosaponin B4, or saikosaponin D at the concentration of 1.0 μg/ml for 4 hours. The cells were collected and the cell survival rate was measured by using calcein. The survival rate of the cells that were increased or decreased compared with that of the normal control cells not-treated with the extract or its active component above and instead treated with DMSO was calculated and presented as percentage (%).

Row | SMILES | p65/ReIA mRNA (% of control) (NF-kB p65/ReIA) | iNOS mRNA (% of control) [1] | IL-6 mRNA (% of control) (interleukin-6, (IL-6)) | DCF-DA-ROS (% of control) (BV2 cells [2]) | NO (BV2 cells [3]) [µM] | MTT (% of control) (BV2 cells [4]) | Cell survival rate (% of control) [5]
1 | C[C@H]1O[C@@H](O[C@H]2CC[C@@]3(C)[C@@H](CC[C@]4(C)[C@@H]3C=CC3=C5CC(C)(C)CC[C@]5(CO)[C@H](O)C[C@]34C)[C@]2(C)CO)[C@H](O)[C@@H](O[C@@H]2O[C@H](CO)[C@@H](O)[C@H](O)[C@H]2O)[C@H]1O [saikosaponin B2, (3b,4a,16a)-16,23,28-Trihydroxyoleana-11,13(18)-dien-3-yl-6-deoxy-3-O-beta-D-glucopyranosyl-beta-D-galactopyranoside] | 50.18 ± 2.67 % of control | 18.11 ± 2.39 % of control | 29.67 ± 2.39 % of control | 214.22 ± 1.87 % of control | 19 ± 2.68 | 88.85 ± 6.48 % of control | 102.74 ± 8.55 % of control
2 | C[C@H]1O[C@@H](O[C@H]2CC[C@@]3(C)[C@@H](CC[C@]4(C)[C@@H]3C=C[C@]35OC[C@@]6(CCC(C)(C)C[C@H]63)[C@H](O)C[C@]54C)[C@]2(C)CO)[C@H](O)[C@@H](O[C@@H]2O[C@H](CO)[C@@H](O)[C@H](O)[C@H]2O)[C@H]1O [saikosaponin D, (3b,4a,16a)-13,28-Epoxy-16,23-dihydroxyolean-11-en-3-yl 6-deoxy-3-O-beta-D-glucopyranosyl beta-D-galactopyranoside] | 49.80 ± 3.54 % of control | 21.23 ± 1.99 % of control | 26.58 ± 1.75 % of control | 218.61 ± 2.71 % of control | 18.1 ± 2.93 | 86.73 ± 1.25 % of control | 97.45 ± 3.99 % of control
3 | CO[C@@H]1C=C2[C@@H]3CC(C)(C)CC[C@]3(CO)[C@H](O)C[C@@]2(C)[C@]2(C)CC[C@H]3[C@](C)(CO)[C@@H](O[C@@H]4O[C@H](C)[C@H](O)[C@H](O[C@@H]5O[C@H](CO)[C@@H](O)[C@H](O)[C@H]5O)[C@H]4O)CC[C@]3(C)[C@@H]12 [saikosaponin B4, (3β,11α,16α)-16,23,28-Trihydroxy-11-methoxyolean-12-en-3-yl-6-deoxy-3-O-β-D-glucopyranosyl-β-D-galactopyranoside] | 53.70 ± 4.72 % of control | 26.06 ± 3.27 % of control | 28.53 ± 1.92 % of control | 223.26 ± 2.86 % of control | 17.2 ± 2.11 | 87.12 ± 2.56 % of control | 97.99 ± 2.86 % of control
